Laboratory results: the supplement of paper PMC8633005

Experiments:
Experiment in all cases: drug sensitivity score (DSS) (DSS (unitless, 0-50 scale)); higher = more sensitive (stronger viability inhibition); extreme values may be limits of the assay
Conditions in all cases: 72 h; culture: 2D
[1] = system: FM-MEL-2
Method in brief: (§1)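 Drug sensitivity scores, modified area-under-curve measures, were derived from dose-response curves fitted in the in-house Breeze software. The curves came from melanoma cell lines and patient-derived melanoma cultures (1000–1500 cells per well) grown in 2D in 384-well plates holding a 527-compound oncology library. Each compound was dissolved in DMSO or water and tested at five concentrations across a 10,000-fold range. Viability was read by CellTiter-Glo luminescence after 72 h at 37 °C.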

[2] = system: SK-MEL-28
Method in brief: as §1

[3] = system: WM852
Method in brief: as §1

[4] = system: WM165
Method in brief: as §1

[5] = system: SK-MEL-2
Method in brief: as §1

[6] = system: FM-MEL-6
Method in brief: as §1

[7] = system: Bowes
Method in brief: as §1

[8] = system: FM-MEL-3
Method in brief: as §1

| Structure (SMILES) | drug sensitivity score [1] | drug sensitivity score [2] | drug sensitivity score [3] | drug sensitivity score [4] | drug sensitivity score [5] | drug sensitivity score [6] | drug sensitivity score [7] | drug sensitivity score [8] |
| --- | --- | --- | --- | --- | --- | --- | --- | --- |
| CN1CC[C@H](c2c(O)cc(O)c3c(=O)cc(-c4ccccc4Cl)oc23)[C@H](O)C1 [Alvocidib] | 12.6 | 18.1 | 16.4 | 20.4 | 16.9 | 17.7 | 19.9 | 18.6 |
| CCN(CC)CCNC(=O)c1c(C)[nH]c(/C=C2\C(=O)Nc3ccc(-c4csc(-c5ccccc5)n4)cc32)c1C [Amcasertib] | 7.4 | 1.9 | 8.2 | 4.5 | 0 | 8.8 | 0.2 | 4.1 |
| CCC1(c2ccc(N)cc2)CCC(=O)NC1=O (stereo unspecified) [Aminoglutethimide] | 0 | 0 | 0 | 0 | 0 | 0 | 0 | 0 |
| COc1cc(NS(C)(=O)=O)ccc1Nc1c2ccccc2nc2ccccc12 [Amsacrine] | 4.9 | 6.4 | 0 | 16.9 | 2.8 | 5.5 | 0.5 | 5.8 |
| S=C(NCc1ccc2c(c1)OCO2)N1CCN(c2ncnc3c2oc2ccccc23)CC1 [Amuvatinib] | 0 | 0 | 6.6 | 1.2 | 0 | 0 | 3.9 | 4.9 |
| O=C1CN2Cc3c(ccc(Cl)c3Cl)N=C2N1 [Anagrelide] | 0 | 0 | 0 | 0 | 0 | 0 | 9.6 | 1.8 |
| CC(C)(C#N)c1cc(Cn2cncn2)cc(C(C)(C)C#N)c1 [Anastrozole] | 0 | 0 | 0 | 0 | 0 | 0 | 0 | 0 |
| CNC(=O)c1ccc(N2C(=S)N(c3cnc(C#N)c(C(F)(F)F)c3)C(=O)C23CCC3)cc1F [Apalutamide] | 0 | 0 | 0 | 0 | 0 | 0 | 0 | 0 |
| N#CC1(c2ccc(NC(=O)c3cccnc3NCc3ccncc3)cc2)CCCC1 [Apatinib] | 0.1 | 0 | 0 | 0 | 0 | 0 | 0 | 0 |
| O=C(Nc1ccc(OC(F)(F)Cl)cc1)c1cnc(N2CC[C@@H](O)C2)c(-c2cc[nH]n2)c1 [Asciminib] | 0.6 | 0 | 0.3 | 0 | 0 | 0 | 0 | 0.1 |
| CC(C)c1c(C(=O)Nc2ccccc2)c(-c2ccccc2)c(-c2ccc(F)cc2)n1CC[C@@H](O)C[C@@H](O)CC(=O)O [Atorvastatin] | 0 | 1 | 4.4 | 7.6 | 1.1 | 0 | 5.8 | 1.5 |
| CC(=O)OC[C@H]1O[C@@H]([S-])[C@H](OC(C)=O)[C@@H](OC(C)=O)[C@@H]1OC(C)=O.CCP(CC)CC.[Au+] [Auranofin] | 0.5 | 3.2 | 5.6 | 9.5 | 3.7 | 2.6 | 12.4 | 9 |
| CNC(=O)c1ccccc1Sc1ccc2c(/C=C/c3ccccn3)n[nH]c2c1 [Axitinib] | 2.1 | 0.1 | 0.1 | 4.6 | 0 | 0 | 0.1 | 2.6 |
| Nc1ncn([C@@H]2O[C@H](CO)[C@@H](O)[C@H]2O)c(=O)n1 [Azacitidine] | 3.1 | 0.4 | 0.1 | 4.2 | 1.6 | 4.7 | 2.6 | 8.6 |
| Cc1cc(-c2nc(-c3ccc(OC(F)(F)F)cc3)no2)nn1Cc1ccnc(N2CCN(C3CC3)CC2)c1 [BAY 87-2243] | 0.2 | 1.6 | 25.9 | 5.5 | 0 | 0 | 12.3 | 6.6 |
| Nc1nc(Nc2ccc3c(c2)CC[C@@H](N2CCCC2)CC3)nn1-c1cc2c(nn1)-c1ccccc1CCC2 [BGB324] | 2.6 | 6.7 | 6.9 | 5.7 | 5.6 | 5.4 | 3.2 | 5 |
| O=C1CCc2c(Oc3ccc4c(c3)[C@@H]3[C@H](O4)[C@H]3c3nc4cc(C(F)(F)F)ccc4[nH]3)ccnc2N1 [BGB-283] | 12.1 | 16.5 | 4.5 | 15.6 | 7.4 | 6.2 | 4 | 16.5 |
